How the values were obtained:
Format in all cases: in vivo
[1] = test system: B cells in the bone marrow; assay: Flow cytometry of B cells in bone marrow of old mice; settings: 500 mg/kg p.o., α-NMN 4 weeks; for number of CD38+ B cells in bone marrow: β-NMN 6 weeks (FIG. 4B); for number of CD45+ B cells in bone marrow: β-NMN 6 weeks (FIG. 5A); for number of pre-pro-B cells in bone marrow: β-NMN 6 weeks (FIG. 5B); for number of pro-B cells in bone marrow: β-NMN 6 weeks (FIG. 5C); for number of pre-B cells in bone marrow: β-NMN 6 weeks (FIG. 5D); for number of immature B cells in bone marrow: β-NMN 6 weeks (FIG. 5E); for number of B cells in bone marrow: β-NMN 6 weeks, vs non-treated old mice (FIG. 4A)
Description: The administering of β-NMN at 500 mg/kg, of α-NMN at 500 mg/kg and of the vehicle (water) was obtained via oral route (p.o) in the drinking water to young and old mice. The solutions were prepared by dissolving the powder of β-NMN or α-NMN in the vehicle (water). The study comprised 4 groups each having 6 mice: • Group 1: young mice (aged 10 weeks)+drinking water (vehicle) • Groupe 2: old mice (aged 15 months)+drinking water (vehicle) • Group 3: old mice (aged 15 months)+compound I-B (alpha-NMN) in the drinking water • Group 4: old mice (aged 15 months)+compound I-A (beta-NMN) in the drinking water The water consumption of the mice was assessed per cage every other day. The mice were weighed every week. The mice in Group 3 were sacrificed after 4 weeks for organ collection and characterisation of T cell function. The mice in Group 4 were sacrificed after 6 weeks for organ collection and characterisation of T cell function. On the day of sacrifice, the mice were anaesthetised with Vetoflurane (isoflurane) and blood samples were taken from the retroorbital sinus. The blood was incubated for 30 minutes at ambient temperature and then centrifuged at 1300 g for 10 minutes. After sacrificing of the mice, the spleen, thymus, and bone marrow of each animal were removed. The thymus was weighed and measured to evaluate involution thereof. For illustration purposes, photos of the thymus were taken on 5 animals per group. The thymus was divided into two parts: one part was treated with formol for histological examination. The second part was treated for characterisation of the immune cells. For characterisation of the cells, the thymus and spleen were crushed through a sieve of […] over a 50 mL tube with a syringe plunger. The bone marrow was rinsed with RPMI culture medium using a needle and syringe. The cell suspension was then centrifuged at 400 g for 5 minutes at 4° C. Lysis of the red blood cells was also performed before the cell count and use thereof for cytometry. The isolated cells of the spleen, thymus and bone marrow were marked with antibodies in accordance with the following tables to identify the proportion of effector and memory naive T and B cells. The following bone marrow cells were also examined for characterisation as a function of the combination of proteins on the surface thereof: [table] Measured parameters: The results of flow cytometry are expressed in number or as a proportion of cells per organ. The weight of the thymus is expressed in grams.

[2] = test system: T cells present in the spleen; assay: Flow cytometry of CD4+ and CD8+ T cells in the spleen of old mice; settings: 500 mg/kg p.o.; for number of CD4+ effector T cells: α-NMN 4 weeks, β-NMN 6 weeks, compared with Group 3 (so in the source)
Description: The administering of β-NMN at 500 mg/kg, of α-NMN at 500 mg/kg and of the vehicle (water) was obtained via oral route (p.o) in the drinking water to young and old mice. The solutions were prepared by dissolving the powder of β-NMN or α-NMN in the vehicle (water). The study comprised 4 groups each having 6 mice: • Group 1: young mice (aged 10 weeks)+drinking water (vehicle) • Groupe 2: old mice (aged 15 months)+drinking water (vehicle) • Group 3: old mice (aged 15 months)+compound I-B (alpha-NMN) in the drinking water • Group 4: old mice (aged 15 months)+compound I-A (beta-NMN) in the drinking water The water consumption of the mice was assessed per cage every other day. The mice were weighed every week. The mice in Group 3 were sacrificed after 4 weeks for organ collection and characterisation of T cell function. The mice in Group 4 were sacrificed after 6 weeks for organ collection and characterisation of T cell function. On the day of sacrifice, the mice were anaesthetised with Vetoflurane (isoflurane) and blood samples were taken from the retroorbital sinus. The blood was incubated for 30 minutes at ambient temperature and then centrifuged at 1300 g for 10 minutes. After sacrificing of the mice, the spleen, thymus, and bone marrow of each animal were removed. The thymus was weighed and measured to evaluate involution thereof. For illustration purposes, photos of the thymus were taken on 5 animals per group. The thymus was divided into two parts: one part was treated with formol for histological examination. The second part was treated for characterisation of the immune cells. For characterisation of the cells, the thymus and spleen were crushed through a sieve of […] over a 50 mL tube with a syringe plunger. The bone marrow was rinsed with RPMI culture medium using a needle and syringe. The cell suspension was then centrifuged at 400 g for 5 minutes at 4° C. Lysis of the red blood cells was also performed before the cell count and use thereof for cytometry. The isolated cells of the spleen, thymus and bone marrow were marked with antibodies in accordance with the following tables to identify the proportion of effector and memory naive T and B cells. The following T cells of the spleen were also examined for characterisation as a function of the combination of proteins on the surface thereof: [table] Measured parameters: The results of flow cytometry are expressed in number or as a proportion of cells per organ. The weight of the thymus is expressed in grams.

[3] = test system: old mice (aged 15 months); assay: Study of the effects on immunosenescence in old mice (overall conclusion); settings: old mice (15 months), 500 mg/kg p.o. in drinking water; concluding statement
Description: The administering of β-NMN at 500 mg/kg, of α-NMN at 500 mg/kg and of the vehicle (water) was obtained via oral route (p.o) in the drinking water to young and old mice. The solutions were prepared by dissolving the powder of β-NMN or α-NMN in the vehicle (water). The solution was used at ambient temperature for no more than 2 days and was freshly prepared for each new administration. The mice were weighed each week to adapt the dose of the compound to be administered. Throughout the entire phase, a standard food diet and tap water were provided ad libitum. The study comprised 4 groups each having 6 mice: • Group 1: young mice (aged 10 weeks)+drinking water (vehicle) • Groupe 2: old mice (aged 15 months)+drinking water (vehicle) • Group 3: old mice (aged 15 months)+compound I-B (alpha-NMN) in the drinking water • Group 4: old mice (aged 15 months)+compound I-A (beta-NMN) in the drinking water The water consumption of the mice was assessed per cage every other day. The mice were weighed every week. The mice in Group 3 were sacrificed after 4 weeks for organ collection and characterisation of T cell function. The mice in Group 4 were sacrificed after 6 weeks for organ collection and characterisation of T cell function. […] The thymus was weighed and measured to evaluate involution thereof. […]

SMILES | number of CD38+ B cells in bone marrow [1] | number of CD45+ B cells in bone marrow [1] | number of pre-pro-B cells in bone marrow [1] | number of pro-B cells in bone marrow [1] | number of pre-B cells in bone marrow [1] | number of immature B cells in bone marrow [1] | number of B cells in bone marrow [1] | number of CD4+ memory T cells in the spleen ([2]; 6 weeks, compared with the other groups (FIG. 7B)) | total number of CD4+ T cells in the spleen ([2]; 6 weeks, compared with the other groups of mice (FIG. 7A)) | number of CD4+ effector T cells [2] | signs of immunosenescence [3] | number of naive CD8+ T cells in the spleen ([2]; 4 weeks (FIG. 8A)) | levels of effector CD8+ T cells in the spleen ([2]; 4 weeks (FIG. 8B)) | levels of memory CD8+ T cells in the spleen ([2]; 4 weeks (FIG. 8C as printed)) | levels of effector memory CD8+ T cells in the spleen ([2]; 4 weeks (FIG. 8D as printed))
NC(=O)c1ccc[n+]([C@@H]2O[C@H](COP(=O)([O-])O)[C@@H](O)[C@H]2O)c1 (stereo in doubt) [I-A, nicotinamide mononucleotide] | restoring of the number of CD38+ B cells to the level expressed by the young mice | significant increase in the number of CD45+ B cells | increase in the number of pre-pro B cells | does not show any impact on the number of pro-B cells | increase in the number of pre-B cells | increase | significant increase in the number of B cells | increase in the memory T cells that is significant | significantly increased | increase in the number of CD4+ effector T cells | significant decrease in the signs of immunosenescence | – | – | – | –
NC(=O)c1ccc[n+]([C@H]2O[C@H](COP(=O)([O-])O)[C@@H](O)[C@H]2O)c1 (stereo in doubt) [I-B, alpha nicotinamide mononucleotide] | restoring of the number of CD38+ B cells to the level expressed by the young mice | significant increase in the number of CD45+ B cells | increase in the number of pre-pro B cells | does not show any impact on the number of pro-B cells | increase in the number of pre-B cells | increase | significant increase in the number of B cells | – | – | increase in the number of CD4+ effector T cells | significant decrease in the signs of immunosenescence | does not modify the number of naive CD8+ T cells | restoring of the levels of effector CD8+ T cells | restoring of the levels | restoring of the levels

From patent US20230136569A1, “USE OF NMN TO REDUCE IMMUNODEPRESSION AND IMMUNOSENESCENCE” (NUVAMID SA, priority 2020, published 2023)
